{"source": "PubChem BioAssay (NCI)", "experiment_in_all_cases": "inhibition of tumour cell growth, NCI panel, 48 h", "key": {"EKVX NSCLC": {"test_system": "EKVX NSCLC"}, "HOP-62 NSCLC": {"test_system": "HOP-62 NSCLC"}, "SN12C renal": {"test_system": "SN12C renal"}, "NCI-H226 lung": {"test_system": "NCI-H226 lung"}, "UO-31 renal": {"test_system": "UO-31 renal"}, "SNB-75 CNS": {"test_system": "SNB-75 CNS"}, "HOP-92 NSCLC": {"test_system": "HOP-92 NSCLC"}, "MALME-3M melanoma": {"test_system": "MALME-3M melanoma"}, "M14 melanoma": {"test_system": "M14 melanoma"}, "SNB-19 CNS": {"test_system": "SNB-19 CNS"}, "TK-10 renal": {"test_system": "TK-10 renal"}, "UACC-257 melanoma": {"test_system": "UACC-257 melanoma"}, "CCRF-CEM leukemia": {"test_system": "CCRF-CEM leukemia"}, "COLO 205 colon": {"test_system": "COLO 205 colon"}, "MCF7 breast": {"test_system": "MCF7 breast"}, "K-562 leukemia": {"test_system": "K-562 leukemia"}, "SF-268 CNS": {"test_system": "SF-268 CNS"}, "KM12 colon": {"test_system": "KM12 colon"}, "HCT-116 colon": {"test_system": "HCT-116 colon"}, "HL-60(TB) leukemia": {"test_system": "HL-60(TB) leukemia"}, "RPMI-8226 leukemia": {"test_system": "RPMI-8226 leukemia"}, "SK-MEL-2 melanoma": {"test_system": "SK-MEL-2 melanoma"}, "SF-539 CNS": {"test_system": "SF-539 CNS"}, "NCI-H23 lung": {"test_system": "NCI-H23 lung"}, "HT29 colon": {"test_system": "HT29 colon"}, "A549 NSCLC": {"test_system": "A549 NSCLC"}, "HCC-2998 colon": {"test_system": "HCC-2998 colon"}, "MOLT-4 leukemia": {"test_system": "MOLT-4 leukemia"}, "T-47D breast": {"test_system": "T-47D breast"}, "IGROV1 ovarian": {"test_system": "IGROV1 ovarian"}, "SW-620 colon": {"test_system": "SW-620 colon"}, "CAKI-1 renal": {"test_system": "CAKI-1 renal"}, "MDA-MB-435": {"test_system": "MDA-MB-435"}, "SK-MEL-28 melanoma": {"test_system": "SK-MEL-28 melanoma"}, "UACC-62 melanoma": {"test_system": "UACC-62 melanoma"}, "786-0 renal": {"test_system": "786-0 renal"}, "OVCAR-8 ovarian": {"test_system": "OVCAR-8 ovarian"}, "SK-OV-3 ovarian": {"test_system": "SK-OV-3 ovarian"}, "LOX IMVI melanoma": {"test_system": "LOX IMVI melanoma"}, "OVCAR-4 ovarian": {"test_system": "OVCAR-4 ovarian"}, "SK-MEL-5 melanoma": {"test_system": "SK-MEL-5 melanoma"}, "HS 578T breast": {"test_system": "HS 578T breast"}, "MDA-N": {"test_system": "MDA-N"}, "ACHN renal": {"test_system": "ACHN renal"}, "NCI-H522 lung": {"test_system": "NCI-H522 lung"}, "OVCAR-3 ovarian": {"test_system": "OVCAR-3 ovarian"}, "SF-295 CNS": {"test_system": "SF-295 CNS"}, "MDA-MB-231 breast": {"test_system": "MDA-MB-231 breast"}, "OVCAR-5 ovarian": {"test_system": "OVCAR-5 ovarian"}, "NCI-H460 lung": {"test_system": "NCI-H460 lung"}, "A498 renal": {"test_system": "A498 renal"}, "PC-3 prostate": {"test_system": "PC-3 prostate"}, "NCI/ADR-RES ovarian": {"test_system": "NCI/ADR-RES ovarian"}, "RXF 393 renal": {"test_system": "RXF 393 renal"}, "U251 CNS": {"test_system": "U251 CNS"}, "DU-145 prostate": {"test_system": "DU-145 prostate"}, "HCT-15 colon": {"test_system": "HCT-15 colon"}, "BT-549 breast": {"test_system": "BT-549 breast"}}, "note": "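Grown in 96-well plates, cells were treated for 48 hours with each compound at five concentrations. Insufficient inhibition: endpoint recorded as highest concentration tested. TGI: total growth inhibition.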", "data": [{"smiles": "Nc1nc(Cl)c(N)c(NCC2(CO)CCC(CCc3ccccc3)C2)n1", "note": "(stereo not drawn)", "values": [{"measurement": "TGI", "setting": "EKVX NSCLC", "value": "> 69.9", "unit": "µM"}, {"measurement": "TGI", "setting": "HOP-62 NSCLC", "value": 36.7, "unit": "µM"}, {"measurement": "TGI", "setting": "SN12C renal", "value": 63.2, "unit": "µM"}, {"measurement": "TGI", "setting": "NCI-H226 lung", "value": 42.5, "unit": "µM"}, {"measurement": "TGI", "setting": "UO-31 renal", "value": 41.7, "unit": "µM"}, {"measurement": "TGI", "setting": "SNB-75 CNS", "value": 63.9, "unit": "µM"}, {"measurement": "TGI", "setting": "HOP-92 NSCLC", "value": 49.2, "unit": "µM"}, {"measurement": "TGI", "setting": "MALME-3M melanoma", "value": 30.3, "unit": "µM"}, {"measurement": "TGI", "setting": "M14 melanoma", "value": 27.4, "unit": "µM"}, {"measurement": "TGI", "setting": "SNB-19 CNS", "value": "> 94", "unit": "µM"}, {"measurement": "TGI", "setting": "TK-10 renal", "value": "> 70.7", "unit": "µM"}, {"measurement": "TGI", "setting": "UACC-257 melanoma", "value": 18.8, "unit": "µM"}, {"measurement": "TGI", "setting": "CCRF-CEM leukemia", "value": 48.8, "unit": "µM"}, {"measurement": "TGI", "setting": "COLO 205 colon", "value": 25.1, "unit": "µM"}, {"measurement": "TGI", "setting": "MCF7 breast", "value": 34.9, "unit": "µM"}, {"measurement": "TGI", "setting": "K-562 leukemia", "value": 48, "unit": "µM"}, {"measurement": "TGI", "setting": "SF-268 CNS", "value": 40.2, "unit": "µM"}, {"measurement": "TGI", "setting": "KM12 colon", "value": 28.9, "unit": "µM"}, {"measurement": "TGI", "setting": "HCT-116 colon", "value": 31.3, "unit": "µM"}, {"measurement": "TGI", "setting": "HL-60(TB) leukemia", "value": 31.3, "unit": "µM"}, {"measurement": "TGI", "setting": "RPMI-8226 leukemia", "value": 47.7, "unit": "µM"}, {"measurement": "TGI", "setting": "SK-MEL-2 melanoma", "value": 31.7, "unit": "µM"}, {"measurement": "TGI", "setting": "SF-539 CNS", "value": 33.7, "unit": "µM"}, {"measurement": "TGI", "setting": "NCI-H23 lung", "value": 28.6, "unit": "µM"}, {"measurement": "TGI", "setting": "HT29 colon", "value": 29.2, "unit": "µM"}, {"measurement": "TGI", "setting": "A549 NSCLC", "value": "> 100", "unit": "µM"}, {"measurement": "TGI", "setting": "HCC-2998 colon", "value": 31.9, "unit": "µM"}, {"measurement": "TGI", "setting": "MOLT-4 leukemia", "value": 28, "unit": "µM"}, {"measurement": "TGI", "setting": "T-47D breast", "value": "> 59", "unit": "µM"}, {"measurement": "TGI", "setting": "IGROV1 ovarian", "value": "> 62.4", "unit": "µM"}, {"measurement": "TGI", "setting": "SW-620 colon", "value": 27.2, "unit": "µM"}, {"measurement": "TGI", "setting": "CAKI-1 renal", "value": 47.2, "unit": "µM"}, {"measurement": "TGI", "setting": "MDA-MB-435", "value": 27, "unit": "µM"}, {"measurement": "TGI", "setting": "SK-MEL-28 melanoma", "value": 31.1, "unit": "µM"}, {"measurement": "TGI", "setting": "UACC-62 melanoma", "value": 26, "unit": "µM"}, {"measurement": "TGI", "setting": "786-0 renal", "value": 61.2, "unit": "µM"}, {"measurement": "TGI", "setting": "OVCAR-8 ovarian", "value": 38.1, "unit": "µM"}, {"measurement": "TGI", "setting": "SK-OV-3 ovarian", "value": 63.8, "unit": "µM"}, {"measurement": "TGI", "setting": "LOX IMVI melanoma", "value": 25.9, "unit": "µM"}, {"measurement": "TGI", "setting": "OVCAR-4 ovarian", "value": 77.5, "unit": "µM"}, {"measurement": "TGI", "setting": "SK-MEL-5 melanoma", "value": 15.1, "unit": "µM"}, {"measurement": "TGI", "setting": "HS 578T breast", "value": "> 63.8", "unit": "µM"}, {"measurement": "TGI", "setting": "MDA-N", "value": 33.7, "unit": "µM"}, {"measurement": "TGI", "setting": "ACHN renal", "value": "> 68.9", "unit": "µM"}, {"measurement": "TGI", "setting": "NCI-H522 lung", "value": 26.3, "unit": "µM"}, {"measurement": "TGI", "setting": "OVCAR-3 ovarian", "value": 50.3, "unit": "µM"}, {"measurement": "TGI", "setting": "SF-295 CNS", "value": 29.8, "unit": "µM"}, {"measurement": "TGI", "setting": "MDA-MB-231 breast", "value": 34.4, "unit": "µM"}, {"measurement": "TGI", "setting": "OVCAR-5 ovarian", "value": 63.5, "unit": "µM"}, {"measurement": "TGI", "setting": "NCI-H460 lung", "value": 32.2, "unit": "µM"}, {"measurement": "TGI", "setting": "A498 renal", "value": 49.5, "unit": "µM"}, {"measurement": "TGI", "setting": "PC-3 prostate", "value": 49.7, "unit": "µM"}, {"measurement": "TGI", "setting": "NCI/ADR-RES ovarian", "value": "> 63.1", "unit": "µM"}, {"measurement": "TGI", "setting": "RXF 393 renal", "value": 37.2, "unit": "µM"}, {"measurement": "TGI", "setting": "U251 CNS", "value": 29, "unit": "µM"}, {"measurement": "TGI", "setting": "DU-145 prostate", "value": 55.1, "unit": "µM"}, {"measurement": "TGI", "setting": "HCT-15 colon", "value": 41.8, "unit": "µM"}, {"measurement": "TGI", "setting": "BT-549 breast", "value": 32.6, "unit": "µM"}]}]}
